Results from patent US20190022152A1, “MICROBIOME RESPONSE TO AGENTS” (Yeda Research and Development Co., Ltd., priority 2014, published 2019).
Peptide text beside a SMILES is read from it.

Tests used:
[1] = tested on: fecal matter from naïve mice; experiment: In vitro anaerobic culturing of fecal matter with saccharin; assay type: cell-based; details: In vitro, PBS vs. SAC
Experimental: pooled fecal matter from naïve adult WT C57Bl/6 male mice was resuspended in 5 ml PBS in an anaerobic chamber (Coy Laboratory Products, 75% N2, 20% CO2, 5% H2), vortexed for 3 minutes and allowed to settle by gravity for 2 minutes. […] were added to a tube containing Chopped Meat Carbohydrate Broth, PR II (BD) and […] of a 5 mgml-1 saccharin solution or an equal volume of PBS. Every 3 days, 500 ml of culture were diluted to fresh medium containing saccharin or PBS. After 9 days, cultures were used for inoculation of germ-free mice.
Frozen fecal samples were processed for DNA isolation using the MoBio PowerSoil kit according to the manufacturer's instructions. […] the variable region 2 (V2) of the 16S rRNA gene were generated by using the following barcoded primers: Fwd 5′-[…]-3′ (SEQ ID NO: 3), Rev 5′-[…]-3′ (SEQ ID NO: 4). […] Reads were then processed using the QIIME (Quantitative Insights Into Microbial Ecology) analysis pipeline as described, version 1.8. Paired-end joined sequences were grouped into operational taxonomic units (OTUs) using the UCLUST algorithm and the greengenes database. Sequences with distance-based similarity of 97% or greater over median sequence length of 353 bp were assigned to the same OTU. Samples were grouped according to the treatment. […] P-values were FDR corrected for multiple hypothesis testing.

[2] = literature values; cited from earlier work
mice = experiment: Oral glucose tolerance test in mice drinking non-caloric artificial sweeteners (NAS); assay type: in vivo; details: lean C57Bl/6 mice, normal chow, commercial NAS formulations in drinking water, week 11; p<0.001 vs water, glucose, sucrose
Text: C57Bl/6 WT adult male mice were randomly assigned (without blinding) to treatment groups and were given commercial artificial sweeteners (saccharin-, sucralose- or aspartame-based) or pure saccharin (Sigma Aldrich) in drinking water and fed a high-fat (HFD D12492, 60% Kcal from fat, Research Diets) or standard polysaccharide normal chow (NC) diet (Harlan-Teklad). Compared groups were always fed from the same batch of diet. For antibiotic treatment, mice were given a combination of ciprofloxacin (0.2 gl^−1) and metronidazole ([…]) or vancomycin (0.5 gl^−1) in their drinking water. All antibiotics were obtained from Sigma Aldrich. Adult male outbred Swiss-Webster mice (a widely used mouse strain in germ-free experiments) served as recipients for fecal transplants and were housed in sterile isolators (Park Biosciences). For fecal transplantation experiments, 200 mg of stool (from mouse pellets or human swabs) was resuspended in 5 ml of PBS under anaerobic conditions, vortexed for 3 minutes and allowed to settle by gravity for 2 minutes. Recipient mice were gavaged with 200 μl of the supernatant and maintained on standard NC diet and water throughout the experiment.
The following commercially available NAS were dissolved in mice drinking water to obtain a 10% solution: Sucrazit (5% saccharin, 95% glucose), Sucralite (5% Sucralose), Sweet'n Low Gold (4% Aspartame). 10% glucose (J.T. Baker) and 10% sucrose (Sigma Aldrich) solutions were used for controls. […] For experiments conducted with pure saccharin (Sigma Aldrich) a 0.1 mgml^−1 solution was used in order to meet with FDA defined ADI for saccharin in humans (5 mgkg^−1), according to the following calculation:
Mice were fasted for 6 hours during the light phase, with free access to water. In all groups of mice where the drinking regime was other than water, it was substituted for water for the period of the fasting and glucose or insulin tolerance test. Blood from the tail vein was used to measure glucose levels using a glucometer (Bayer) immediately before and 15, 30, 60, 90 and 120 minutes after oral feeding with 40 mg glucose (J.T. Baker) or intra-peritoneal injection with 0.1 Ukg^−1 Insulin (Biological Industries). Plasma fasting insulin levels were measured in sera collected immediately before the start of GTT using ELISA (Ultra Sensitive Mouse Insulin ELISA Kit, Crystal Chem).

SMILES: O=C1NS(=O)(=O)c2ccccc21 [SAC]
- Log_fold change: 2-Oxocarboxylic acid metabolism [1]: 0.01
- Log_fold change: ABC transporters [1]: −0.03
- Log_fold change: Alanine, aspartate and glutamate metabolism [1]: −0.01
- Log_fold change: Amino sugar and nucleotide sugar metabolism [1]: 0.01
- Log_fold change: Aminoacyl-tRNA biosynthesis [1]: −0.02
- Log_fold change: Aminobenzoate degradation [1]: −0.01
- Log_fold change: Arginine and proline metabolism [1]: −0.01
- Log_fold change: Ascorbate and aldarate metabolism [1]: 0.03
- Log_fold change: Atrazine degradation [1]: −0.05
- Log_fold change: Bacterial chemotaxis [1]: 0.03
- Log_fold change: Bacterial secretion system [1]: 0.01
- Log_fold change: Base excision repair [1]: 0.00
- Log_fold change: Benzoate degradation [1]: −0.01
- Log_fold change: Biosynthesis of amino acids [1]: 0.00
- Log_fold change: Biosynthesis of siderophore group nonribosomal peptides [1]: −0.02
- Log_fold change: Biosynthesis of unsaturated fatty acids [1]: −0.03
- Log_fold change: Biotin metabolism [1]: −0.01
- Log_fold change: Bisphenol degradation [1]: 0.00
- Log_fold change: Butanoate metabolism [1]: −0.01
- Log_fold change: CS-Branched dibasic acid metabolism [1]: 0.01
- Log_fold change: Caprolactam degradation [1]: −0.02
- Log_fold change: Carbon fixation in photosynthetic organisms [1]: 0.00
- Log_fold change: Carbon fixation pathways in prokaryotes [1]: 0.00
- Log_fold change: Carbon metabolism [1]: −0.01
- Log_fold change: Cell cycle-Caulobacter [1]: 0.00
- Log_fold change: Chloroalkane and chloroalkene degradation [1]: −0.03
- Log_fold change: Citrate cycle (TCA cycle) [1]: 0.00
- Log_fold change: Cyanoamino acid metabolism [1]: 0.02
- Log_fold change: Cysteine and methionine metabolism [1]: 0.01
- Log_fold change: D-Alanine metabolism [1]: −0.04
- Log_fold change: D-Arginine and D-ornithine metabolism [1]: 0.24
- Log_fold change: D-Glutamine and D-glutamate metabolism [1]: −0.03
- Log_fold change: DDT degradation [1]: −0.35
- Log_fold change: DNA replication [1]: 0.00
- Log_fold change: Dioxin degradation [1]: −0.12
- Log_fold change: Drug metabolism-other enzymes [1]: 0.00
- Log_fold change: Ether lipid metabolism [1]: −0.02
- Log_fold change: Fatty acid biosynthesis [1]: −0.01
- Log_fold change: Fatty acid degradation [1]: −0.01
- Log_fold change: Fatty acid metabolism [1]: 0.00
- Log_fold change: Flagellar assembly [1]: 0.07
- Log_fold change: Folate biosynthesis [1]: 0.00
- Log_fold change: Fructose and mannose metabolism [1]: 0.00
- Log_fold change: Galactose metabolism [1]: 0.02
- Log_fold change: Geraniol degradation [1]: 0.00
- Log_fold change: Glutathione metabolism [1]: −0.03
- Log_fold change: Glycerolipid metabolism [1]: 0.00
- Log_fold change: Glycerophospholipid metabolism [1]: −0.02
- Log_fold change: Glycine, serine and threonine metabolism [1]: 0.00
- Log_fold change: Glycolysis/Gluconeogenesis [1]: −0.02
- Log_fold change: Glycosaminoglycan degradation [1]: 0.03
- Log_fold change: Glycosphingolipid biosynthesis-globoseries [1]: 0.05
- Log_fold change: Glyoxylate and dicarboxylate metabolism [1]: 0.01
- Log_fold change: Histidine metabolism [1]: 0.01
- Log_fold change: Homologous recombination [1]: −0.01
- Log_fold change: Inositol phosphate metabolism [1]: 0.02
- Log_fold change: Limonene and pinene degradation [1]: −0.01
- Log_fold change: Lipoicacid metabolism [1]: −0.01
- Log_fold change: Lipopolysaccharide biosynthesis [1]: 0.01
- Log_fold change: Lysine biosynthesis [1]: 0.00
- Log_fold change: Lysine degradation [1]: −0.03
- Log_fold change: Methane metabolism [1]: −0.01
- Log_fold change: Mismatch repair [1]: −0.01
- Log_fold change: Naphthalene degradation [1]: −0.02
- Log_fold change: Nicotinate and nicotinamide metabolism [1]: −0.02
- Log_fold change: Nitrogen metabolism [1]: 0.00
- Log_fold change: Nitrotoluene degradation [1]: −0.05
- Log_fold change: Novobiocin biosynthesis [1]: 0.02
- Log_fold change: Nucleotide excision repair [1]: 0.00
- Log_fold change: One carbon pool by folate [1]: 0.01
- Log_fold change: Other glycan degradation [1]: 0.03
- Log_fold change: Oxidative phosphorylation [1]: −0.02
- Log_fold change: Pantothenate and CoA biosynthesis [1]: 0.00
- Log_fold change: Penicillin and cephalosporin biosynthesis [1]: −0.02
- Log_fold change: Pentose and glucuronate interconversions [1]: 0.02
- Log_fold change: Pentose phosphate pathway [1]: 0.00
- Log_fold change: Peptidoglycan biosynthesis [1]: −0.02
- Log_fold change: Phenylalanine metabolism [1]: 0.01
- Log_fold change: Phenylalanine, tyrosine and tryptophan biosynthesis [1]: 0.01
- Log_fold change: Phosphonate and phosphinate metabolism [1]: −0.01
- Log_fold change: Phosphotransferase system (PTS) [1]: −0.17
- Log_fold change: Porphyrin and chlorophyll metabolism [1]: 0.01
- Log_fold change: Propanoate metabolism [1]: −0.01
- Log_fold change: Protein export [1]: −0.01
- Log_fold change: Proximal tubule bicarbonate reclamation [1]: −0.02
- Log_fold change: Purine metabolism [1]: −0.01
- Log_fold change: Pyrimidine metabolism [1]: −0.01
- Log_fold change: Pyruvate metabolism [1]: 0.00
- Log_fold change: RNA degradation [1]: −0.01
- Log_fold change: Riboflavin metabolism [1]: 0.01
- Log_fold change: Ribosome [1]: −0.01
- Log_fold change: Selenocompound metabolism [1]: −0.01
- Log_fold change: Sphingolipid metabolism [1]: 0.04
- Log_fold change: Starch and sucrose metabolism [1]: 0.01
- Log_fold change: Streptomycin biosynthesis [1]: 0.00
- Log_fold change: Styrene degradation [1]: 0.06
- Log_fold change: Sulfur metabolism [1]: −0.01
- Log_fold change: Sulfur relay system [1]: −0.03
- Log_fold change: Synthesis and degradation of ketone bodies [1]: −0.09
- Log_fold change: Taurine and hypotaurine metabolism [1]: 0.00
- Log_fold change: Terpenoid backbone biosynthesis [1]: −0.01
- Log_fold change: Tetracycline biosynthesis [1]: −0.15
- Log_fold change: Thiamine metabolism [1]: −0.02
- Log_fold change: Tropane, piperidine and pyridine alkaloid biosynthesis [1]: 0.02
- Log_fold change: Tryptophan metabolism [1]: −0.04
- Log_fold change: Two−component system [1]: 0.01
- Log_fold change: Tyrosine metabolism [1]: −0.01
- Log_fold change: Ubiquinone and other terpenoid-quinone biosynthesis [1]: −0.03
- Log_fold change: Valine, leucine and isoleucine biosynthesis [1]: 0.01
- Log_fold change: Valine, leucine and isoleucine degradation [1]: 0.00
- Log_fold change: Vibriocholerae pathogenic cycle [1]: 0.00
- Log_fold change: Vitamin B6 metabolism [1]: 0.00
- Log_fold change: Xylene degradation [1]: −0.12
- Log_fold change: beta-Alanine metabolism [1]: −0.01
- Log_fold change: beta-Lactam resistance [1]: 0.01

SMILES: COC(=O)[C@H](Cc1ccccc1)NC(=O)[C@@H](N)CC(=O)O [aspartame] (H-Asp-Phe-OMe)
- reported toxic dose [2]: 4 gkg^−1
- glucose tolerance (OGTT) (mice): marked glucose intolerance

SMILES: OC[C@H]1O[C@H](O[C@]2(CCl)O[C@H](CCl)[C@@H](O)[C@@H]2O)[C@H](O)[C@@H](O)[C@H]1Cl [sucralose]
- reported toxic dose [2]: 16 gkg^−1
- glucose tolerance (OGTT) (mice): marked glucose intolerance
